Assay results: ChEMBL document CHEMBL5537110, “SIRT1-dependent mitochondrial biogenesis supports therapeutic effects of 4-butyl-polyhydroxybenzophenone compounds against NAFLD” (Eur J Med Chem, 2023)
The source made the active and inactive calls. The rule behind the calls is not given here.

What was measured:
HepG2 [1] = experiment: Recovery of mitochondrial activity in 40% FBS-induced steatosis human HepG2 cells model assessed as increase in number of mitochondria incubated with compound for 24 hrs followed by replacement with steatosis inducing DMEM with 40% FBS medium by MitoTracker Green based fluorescence analysis; type: functional, cell-based; details: dose 0.2-5 µM
[2] = biological target: T1, NAD-dependent protein deacetylase sirtuin-1 (Homo sapiens) (UniProt Q96EB6); experiment: Binding affinity to SIRT1 in human HepG2 cells assessed as increase in thermal stabilization of protein at 320 uM pretreated with compound for 30 mins followed by incubation at 40 to 65 degC for 3 mins by CETSA-WB analysis; type: cell-based; details: filed as activator, time 33.0 min
T1 sequence (whole entry): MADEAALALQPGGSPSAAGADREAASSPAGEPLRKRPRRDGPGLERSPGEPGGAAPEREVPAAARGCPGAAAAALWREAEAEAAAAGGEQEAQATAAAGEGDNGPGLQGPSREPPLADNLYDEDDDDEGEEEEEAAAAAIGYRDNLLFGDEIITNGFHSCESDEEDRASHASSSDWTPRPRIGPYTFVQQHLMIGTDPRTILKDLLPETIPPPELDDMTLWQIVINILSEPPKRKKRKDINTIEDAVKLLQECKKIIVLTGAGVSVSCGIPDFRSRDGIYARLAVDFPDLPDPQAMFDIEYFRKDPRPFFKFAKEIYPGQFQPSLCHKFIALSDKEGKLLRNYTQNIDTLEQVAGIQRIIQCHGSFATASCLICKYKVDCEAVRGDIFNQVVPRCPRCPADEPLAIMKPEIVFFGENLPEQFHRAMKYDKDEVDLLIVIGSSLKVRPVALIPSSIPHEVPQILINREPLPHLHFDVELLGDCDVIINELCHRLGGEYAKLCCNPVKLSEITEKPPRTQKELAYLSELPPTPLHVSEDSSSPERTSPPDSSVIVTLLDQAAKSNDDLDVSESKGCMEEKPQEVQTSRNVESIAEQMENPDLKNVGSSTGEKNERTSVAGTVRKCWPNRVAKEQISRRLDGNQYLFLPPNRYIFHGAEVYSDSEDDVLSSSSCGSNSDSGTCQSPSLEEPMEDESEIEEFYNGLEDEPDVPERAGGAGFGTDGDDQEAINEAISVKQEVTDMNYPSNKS

[3] = biological target: T2, Peroxisome proliferator-activated receptor gamma coactivator 1-alpha (Homo sapiens) (UniProt Q9UBK2); experiment: Binding affinity to PGC1alpha in human HepG2 cells assessed as increase in thermal stabilization of protein at 320 uM pretreated with compound for 30 mins followed by incubation at 40 to 65 degC for 3 mins by CETSA-WB analysis; type: cell-based; details: filed as activator, time 33.0 min
T2 sequence (whole entry): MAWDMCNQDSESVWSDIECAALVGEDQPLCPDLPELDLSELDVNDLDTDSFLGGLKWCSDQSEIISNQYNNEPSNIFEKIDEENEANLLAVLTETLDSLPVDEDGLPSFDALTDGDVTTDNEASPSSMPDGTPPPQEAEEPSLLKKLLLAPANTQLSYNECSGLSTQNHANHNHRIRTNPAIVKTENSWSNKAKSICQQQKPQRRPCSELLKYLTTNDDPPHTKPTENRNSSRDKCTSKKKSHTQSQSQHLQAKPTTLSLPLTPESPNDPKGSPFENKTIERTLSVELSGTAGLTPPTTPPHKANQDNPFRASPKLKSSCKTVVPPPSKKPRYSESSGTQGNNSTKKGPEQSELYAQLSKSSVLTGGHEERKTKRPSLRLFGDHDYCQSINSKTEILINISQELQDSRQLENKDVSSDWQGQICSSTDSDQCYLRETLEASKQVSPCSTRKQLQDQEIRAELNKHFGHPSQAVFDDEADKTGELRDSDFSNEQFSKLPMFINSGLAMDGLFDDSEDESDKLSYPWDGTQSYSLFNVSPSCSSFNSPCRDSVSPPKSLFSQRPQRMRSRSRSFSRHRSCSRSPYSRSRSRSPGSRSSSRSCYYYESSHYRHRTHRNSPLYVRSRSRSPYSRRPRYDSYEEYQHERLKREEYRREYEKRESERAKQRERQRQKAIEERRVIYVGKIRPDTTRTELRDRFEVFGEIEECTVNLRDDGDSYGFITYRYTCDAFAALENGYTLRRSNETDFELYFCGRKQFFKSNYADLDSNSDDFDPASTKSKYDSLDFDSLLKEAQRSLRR

[4] = biological target: T1, NAD-dependent protein deacetylase sirtuin-1 (Homo sapiens); experiment: Binding affinity to SIRT1 in human HepG2 cells assessed as increase in thermal stability of protein pretreated with compound for 30 mins followed by incubation at 50 degC for 3 mins by CETSA-WB analysis; type: cell-based; details: filed as activator, dose 80-320 µM, time 33.0 min
[5] = biological target: T2, Peroxisome proliferator-activated receptor gamma coactivator 1-alpha (Homo sapiens); experiment: Binding affinity to PGC1alpha in human HepG2 cells assessed as increase in thermal stability of protein pretreated with compound for 30 mins followed by incubation at 50 degC for 3 mins by CETSA-WB analysis; type: cell-based; details: filed as activator, dose 80-320 µM, time 33.0 min
HepG2 [6] = experiment: Recovery of mitochondrial biogenesis in 40% FBS-induced steatosis human HepG2 cells model assessed as increase in mitochondrial COX1 protein expression incubated for 24 hrs by western blot analysis; type: functional, cell-based; details: dose 0.2-5 µM
HepG2 [7] = experiment: Recovery of mitochondrial biogenesis in 40% FBS-induced steatosis human HepG2 cells model assessed as increase in mitochondrial ND6 protein expression incubated for 24 hrs by western blot analysis; type: functional, cell-based; details: dose 0.2-5 µM
HepG2 [8] = experiment: Inhibition of lipid toxicity in 40% FBS-induced steatosis human HepG2 cells model assessed as decrease in triglyceride content at 0.2 to 5 uM incubated with compound for 24 hrs followed by replacement with steatosis inducing DMEM with 40% FBS medium; type: functional, cell-based; details: dose 0.2-5 µM
HepG2 [9] = experiment: Inhibition of liver injury in 40% FBS-induced steatosis human HepG2 cells model assessed as decrease in AST level at 0.2 to 5 uM incubated in steatosis inducing DMEM with 40% FBS medium for 24 hrs followed by compound treatment; type: functional, cell-based; details: dose 0.2-5 µM
HepG2 [10] = experiment: Inhibition of liver injury in 40% FBS-induced steatosis human HepG2 cells model assessed as increase in liver protection index by measuring increase in ratio of GSH to GSSG at 0.2 to 5 uM incubated in steatosis inducing DMEM with 40% FBS medium for 24 hrs followed by compound treatment; type: functional, cell-based; details: dose 0.2-5 µM
Rattus norvegicus [11] = experiment: Hepatoprotective activity against high fat diet-fed NAFLD Sprague-Dawley rat model assessed as less ballooning degeneration and smaller fatty droplets in hepatocytes at 12.3 to 61.4 mg/kg, IG administered via gavage for 4 weeks by Hematoxylin-Eosin staining based analysis; type: functional, organism-based; details: dose 12.3-61.4 mg/kg
Rattus norvegicus [12] = experiment: Hepatoprotective activity against high fat diet-fed NAFLD Sprague-Dawley rat model assessed as decrease in serum AKP level administered intragastrically via gavage for 4 weeks; type: functional, organism-based; details: dose 12.3-61.4 mg/kg, route ig
Rattus norvegicus [13] = experiment: Hepatoprotective activity against high fat diet-fed NAFLD Sprague-Dawley rat model assessed as decrease in serum gamma-GT level administered intragastrically via gavage for 4 weeks; type: functional, organism-based; details: dose 12.3-61.4 mg/kg, route ig
HepG2 [14] = experiment: Induction of mitochondrial biogenesis in human HepG2 cells assessed as PGC1alpha protein expression incubated for 24 hrs in presence of SIRT1 inhibitor, EX527 by western blot analysis; type: functional, cell-based
HepG2 [15] = experiment: Induction of mitochondrial biogenesis in human HepG2 cells assessed as PGC1alpha mRNA expression incubated for 24 hrs in presence of SIRT1 inhibitor, EX527 by qRT-PCR analysis; type: functional, cell-based

For `CC(C)(C)c1ccc(C(=O)c2ccc(O)c(O)c2)cc1`, the Activity (HepG2 [1]) was “Dose-Dependent Effect”, the Activity [2] was “Active” and the Activity [3] was “Active”. The Activity [4] was “Dose-Dependent Effect”, the Activity [5] was “Dose-Dependent Effect” and the Activity (HepG2 [6]) was “Dose-Dependent Effect”. For the same molecule, the Activity (HepG2 [7]) was “Dose-Dependent Effect”, the inhibition (HepG2 [8]) was “Active” and the inhibition (HepG2 [9]) was “Active”. The inhibition (HepG2 [10]) was “Active”, the Activity (Rattus norvegicus [11]) was “Active” and the Activity (Rattus norvegicus [12]) was “Active”. The Activity (Rattus norvegicus [13]) was “Active”, the Activity (HepG2 [14]) was “inactive” and the Activity (HepG2 [15]) was “inactive”.
